Results reported in patent US20050175692A1, “Pharmaceutical formulation comprising melatonin” (Neurim Pharmaceuticals (1991) ltd., priority 2002, published 2005).

How the values were obtained:
[1] = single evening tablet; melatonin sustained release 2 mg, zolpidem 10 mg
Experimental: Method. The pharmacokinetics of melatonin (2 mg sustained release formulation), zolpidem (10 mg) and their combination were assessed in 16 volunteers (12 males and 4 females).
Blood samples were withdrawn from the subjects at pre-selected intervals after the administration of the tablets.

volunteers [2] = assay: Cognitive Drug Research tests (attention, episodic secondary memory, motor co-ordination); type: in vivo, human
From the text: (§1) A battery of performance tests and driving skill tests were given to the patients at pre-selected intervals after the administration of the tablet. These included psychomotor tasks for reaction test, vigilance and co-ordination: ARCI 49, Grooved Pegboard, Rivermead story, picture presentation, simple reaction time, digit vigilance task, choice reaction time, delayed picture recognition, visual tracking, driving simulator: highway driving and wake-EEG.

volunteers [3] = assay: ARCI 49 (MBG, LSD, PCAG, BG scales); type: in vivo, human
From the text: as §1

volunteers [4] = assay: Rivermead story (immediate and delayed recall); type: in vivo, human; conditions: compared to placebo and sustained release melatonin 2 mg
From the text: as §1

volunteers [5] = assay: Grooved Pegboard; type: in vivo, human; conditions: 1 and 4 hours post-dosing, compared to baseline, placebo and sustained release melatonin 2 mg
From the text: as §1

volunteers [6] = assay: Driving simulator: highway driving; type: in vivo, human; conditions: 2 hours post-dosing
From the text: as §1

volunteers [7] = assay: Wake EEG; type: in vivo, human
From the text: as §1

volunteers [8] = assay: Treatment-emergent adverse events in the psychomotor/driving study; parameters: species or system human; conditions: in vivo
From the text: as §1

Cc1ccc(-c2nc3ccc(C)cn3c2CC(=O)N(C)C)cc1 [Zolpidem, N,N,6-trimethyl-2-p-toyl-imidazo[1,2,-a]pyridine-3-acetamide L-(+)-tartrate (2:1)]
Time to maximum, zolpidem in serum, Mean (SD) [1]: 1.8 (1.2) h | maximum concentration, zolpidem in serum, Mean (SD) [1]: 0.22 (0.11) mcg/ml | Cognitive effects compared to placebo (volunteers [2]; dosed alone, melatonin SR 2 mg or zolpidem 10 mg): several acute impairments | Time post-dosing by which acute impairments were resolved (volunteers [2]; zolpidem 10 mg alone vs placebo): ≤ 12.5 h | Sedative effect (increase of the PCAG scale) vs placebo (volunteers [3]; first 4 hours post-dosing): strong significant sedative effect | Time after administration at which PCAG sedative effect reached the maximum (volunteers [3]; in vivo): about 4 hour | Memory efficiency, both recalls (immediate and delayed) (volunteers [4]): decreased | Duration of task execution (ipsi and contra lateral) (volunteers [5]): significant increase | Number of collisions (volunteers [6]): increased number of collisions | Alpha activity in driving conditions vs sustained release melatonin alone (volunteers [7]; driving conditions, not different vs placebo): significantly increased | Theta rhythm on frontal leads vs placebo (volunteers [7]; in vivo): increased | Alpha activity in resting conditions vs placebo (volunteers [7]; resting conditions): decreases in alpha | Incidence of somnolence compared with melatonin alone and placebo (volunteers [8]): clearly increased
